Test system: IFNA1 and IFNB1 mRNA
Assay: qPCR for IFNA1 and IFNB1 mRNA in NSCLC patients' FFPE tissues
Parameters: species or system human
Conditions: TKI treated versus TKI naive NSCLC patients
Excerpt: Before vs After treatment: Formalin fixed paraffin-embedded (FFPE) tissues from 23 NSCLC patients were obtained from The Jackson Laboratory or UT Southwestern according to IRB-approved protocols. Thirteen specimens were obtained from UT Southwestern and ten from The Jackson Laboratory. Thirteen patients had no EGFR TKI treatment, and ten patients had undergone EGFR TKI treatment.
Referring to FIG. 18A and FIG. 18B, IFNA1 and IFNB1 mRNA was detected by qPCR from 23 NSCLC patients’ FFPE tissues (13 untreated and 10 TKI-treated), collected from UT Southwestern Medical Center and The Jackson Laboratory. Data represents median ± IQR, **: p<0.01, ***: p<0.001, by Kolmogorov-Smimov test (KS test).

SMILES: C#Cc1cccc(Nc2ncnc3cc(OCCOC)c(OCCOC)cc23)c1 [erlotinib]
- Type I IFN levels in patient tumor tissue: higher Type I IFN levels compared to TKI naive patients
